Several values for one entry are separate records, joined by “and”; a condition that tells them apart may be missing. Equal entries are not always repeated.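 A five-concentration, 48-hour dose response in 96-well plates underlies each endpoint, interpolated linearly between surrounding concentrations. GI50 is the concentration that inhibits growth by half. At the TGI there is no net growth.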
Assays:
Test in all cases: NCI-60 cell line screen, 48 h
[1] = test system: 786-0 renal
[2] = test system: A498 renal
[3] = test system: A549 NSCLC
[4] = test system: ACHN renal
[5] = test system: BT-549 breast
[6] = test system: CAKI-1 renal
[7] = test system: CCRF-CEM leukemia
[8] = test system: COLO 205 colon
[9] = test system: DU-145 prostate
[10] = test system: EKVX NSCLC
[11] = test system: HCC-2998 colon
[12] = test system: HCT-116 colon
[13] = test system: HCT-15 colon
[14] = test system: HOP-62 NSCLC
[15] = test system: HOP-92 NSCLC
[16] = test system: HS 578T breast
[17] = test system: HT29 colon
[18] = test system: IGROV1 ovarian
[19] = test system: K-562 leukemia
[20] = test system: KM12 colon
[21] = test system: LOX IMVI melanoma
[22] = test system: M14 melanoma
[23] = test system: MALME-3M melanoma
[24] = test system: MCF7 breast
[25] = test system: MDA-MB-231 breast
[26] = test system: MDA-MB-435
[27] = test system: MDA-N
[28] = test system: MOLT-4 leukemia
[29] = test system: NCI-H226 lung
[30] = test system: NCI-H23 lung
[31] = test system: NCI-H460 lung
[32] = test system: NCI-H522 lung
[33] = test system: NCI/ADR-RES ovarian
[34] = test system: OVCAR-3 ovarian
[35] = test system: OVCAR-4 ovarian
[36] = test system: OVCAR-5 ovarian
[37] = test system: OVCAR-8 ovarian
[38] = test system: PC-3 prostate
[39] = test system: RPMI-8226 leukemia
[40] = test system: RXF 393 renal
[41] = test system: SF-268 CNS
[42] = test system: SF-295 CNS
[43] = test system: SF-539 CNS
[44] = test system: SK-MEL-2 melanoma
[45] = test system: SK-MEL-28 melanoma
[46] = test system: SK-MEL-5 melanoma
[47] = test system: SK-OV-3 ovarian
[48] = test system: SN12C renal
[49] = test system: SNB-19 CNS
[50] = test system: SNB-75 CNS
[51] = test system: SR leukemia
[52] = test system: SW-620 colon
[53] = test system: T-47D breast
[54] = test system: TK-10 renal
[55] = test system: U251 CNS
[56] = test system: UACC-257 melanoma
[57] = test system: UACC-62 melanoma
[58] = test system: UO-31 renal

With `O=c1cc(/C=C/c2ccc(O)c(O)c2)cc(/C=C/c2ccc(O)c(O)c2)o1` as the compound, how does the GI50 [1] read?
Its GI50 is 5.85 µM.

What about the TGI [1] of the same compound?
The TGI was 50 µM and 23.2 µM.

What about the TGI [2] of the same compound?
The TGI was 23.4 µM.

And the GI50 [3]?
The GI50 was 5.48 µM.

What about the TGI [3] of the same compound?
The TGI was 50 µM and 18.9 µM.

And the GI50 [4]?
Its GI50 is 4.01 µM.

And the TGI [4]?
The TGI was 18.8 µM and 14.5 µM.

What about the GI50 [5] of the same compound?
The GI50 was 4.59 µM.

And the TGI [5]?
The TGI was 38.1 µM and 16.8 µM.

And the GI50 [6]?
The GI50 was 4.92 µM.

What about the TGI [6] of the same compound?
The TGI was 31.9 µM and 14.6 µM.

What about the GI50 [7] of the same compound?
Its GI50 is 2.53 µM.

And the TGI [7]?
The TGI was 27.1 µM and 4.86 µM.

What about the GI50 [8] of the same compound?
Its GI50 is 19.1 µM.

What about the TGI [8] of the same compound?
Its TGI is 24.6 µM and 34.4 µM.

What about the GI50 [9] of the same compound?
Its GI50 is 5.29 µM.

And the TGI [9]?
The TGI was 20.2 µM and 22.1 µM.

And the TGI [10]?
The TGI was 15 µM and 21.9 µM.

What about the TGI [11] of the same compound?
The TGI was 19.3 µM.

What about the GI50 [12] of the same compound?
The GI50 was 4.17 µM.

What about the TGI [12] of the same compound?
The TGI was 15.6 µM and 15.3 µM.

What about the GI50 [13] of the same compound?
The GI50 was 4.47 µM.

What about the TGI [13] of the same compound?
The TGI was 24.1 µM and 18.1 µM.

What about the TGI [14] of the same compound?
Its TGI is 24.8 µM and 22.7 µM.

What about the GI50 [15] of the same compound?
The GI50 was 5.16 µM.

And the TGI [15]?
The TGI was 47.6 µM and 17.3 µM.

What about the GI50 [16] of the same compound?
Its GI50 is 3.96 µM.

What about the TGI [16] of the same compound?
Its TGI is 50 µM and 34 µM.

And the GI50 [17]?
Its GI50 is 21.5 µM.

And the TGI [17]?
The TGI was 23.7 µM and 56.8 µM.

What about the GI50 [18] of the same compound?
Its GI50 is 5.24 µM.

And the TGI [18]?
The TGI was 37.5 µM and 18.1 µM.

What about the TGI [19] of the same compound?
The TGI was 8.35 µM.

And the GI50 [20]?
Its GI50 is 5 µM.

And the TGI [20]?
The TGI was 16 µM and 22.7 µM.

What about the GI50 [21] of the same compound?
The GI50 was 5.19 µM.

And the TGI [21]?
Its TGI is 50 µM and 19.4 µM.

And the GI50 [22]?
The GI50 was 8.94 µM.

What about the TGI [22] of the same compound?
The TGI was 21.6 µM and 20.8 µM.

What about the GI50 [23] of the same compound?
Its GI50 is 2.67 µM.

What about the TGI [23] of the same compound?
Its TGI is 22.2 µM and 19.1 µM.

What about the TGI [24] of the same compound?
Its TGI is 18.8 µM.

And the GI50 [25]?
The GI50 was 13.3 µM.

What about the TGI [25] of the same compound?
The TGI was 28.3 µM and 39.8 µM.

What about the GI50 [26] of the same compound?
The GI50 was 3.15 µM.

And the TGI [26]?
Its TGI is 50 µM and 11.6 µM.

And the GI50 [27]?
The GI50 was 4.72 µM.

And the TGI [27]?
Its TGI is 50 µM and 17.1 µM.

And the TGI [28]?
Its TGI is 6.48 µM.

And the GI50 [29]?
Its GI50 is 11 µM.

What about the TGI [29] of the same compound?
Its TGI is 35 µM and 33.4 µM.

And the GI50 [30]?
Its GI50 is 3.49 µM.

What about the TGI [30] of the same compound?
Its TGI is 41.9 µM and 20.8 µM.

What about the GI50 [31] of the same compound?
Its GI50 is 7.14 µM.

And the TGI [31]?
Its TGI is 50 µM and 21.6 µM.

And the GI50 [32]?
Its GI50 is 1.45 µM.

And the GI50 [33]?
The GI50 was 12 µM.

What about the TGI [33] of the same compound?
Its TGI is 50 µM and 52.3 µM.

And the GI50 [34]?
Its GI50 is 4.92 µM.

And the TGI [34]?
The TGI was 15.2 µM and 22 µM.

And the GI50 [35]?
The GI50 was 3.17 µM.

What about the TGI [35] of the same compound?
Its TGI is 43.5 µM and 13.8 µM.

What about the GI50 [36] of the same compound?
The GI50 was 18.3 µM.

And the TGI [36]?
Its TGI is 24.2 µM and 42.2 µM.

What about the GI50 [37] of the same compound?
Its GI50 is 5.5 µM.

And the TGI [37]?
The TGI was 50 µM and 32 µM.

And the GI50 [38]?
Its GI50 is 11 µM.

What about the TGI [38] of the same compound?
Its TGI is 19.9 µM and 27.7 µM.

And the GI50 [39]?
The GI50 was 2.25 µM.

What about the TGI [39] of the same compound?
Its TGI is 14.9 µM and 6.7 µM.

And the GI50 [40]?
Its GI50 is 3.42 µM.

And the TGI [40]?
The TGI was 18.9 µM and 9.11 µM.

What about the GI50 [41] of the same compound?
The GI50 was 4.17 µM.

And the TGI [41]?
The TGI was 16.2 µM and 16.5 µM.

What about the GI50 [42] of the same compound?
Its GI50 is 10.5 µM.

And the TGI [42]?
The TGI was 19.8 µM and 22.2 µM.

And the GI50 [43]?
Its GI50 is 3 µM.

And the TGI [43]?
Its TGI is 17.9 µM and 10.7 µM.

And the TGI [44]?
The TGI was 22.7 µM and 34.5 µM.

What about the TGI [45] of the same compound?
Its TGI is 50 µM.

What about the GI50 [46] of the same compound?
Its GI50 is 4.75 µM.

And the TGI [46]?
Its TGI is 18.1 µM and 19 µM.

And the GI50 [47]?
The GI50 was 13.1 µM.

And the TGI [47]?
Its TGI is 24.1 µM and 25.8 µM.

And the GI50 [48]?
Its GI50 is 6.06 µM.

What about the TGI [48] of the same compound?
The TGI was 25.2 µM and 23.7 µM.

And the GI50 [49]?
Its GI50 is 5.8 µM.

What about the TGI [49] of the same compound?
The TGI was 15.7 µM and 18 µM.

What about the GI50 [50] of the same compound?
The GI50 was 4.3 µM.

What about the TGI [50] of the same compound?
The TGI was 18.5 µM and 15.5 µM.

And the GI50 [51]?
Its GI50 is 1.99 µM.

And the TGI [51]?
The TGI was 14.2 µM and 6.05 µM.

What about the GI50 [52] of the same compound?
Its GI50 is 3.05 µM.

And the TGI [52]?
Its TGI is 50 µM and 12.3 µM.

And the GI50 [53]?
Its GI50 is 1.95 µM.

What about the TGI [53] of the same compound?
The TGI was 27.3 µM and 4.92 µM.

What about the GI50 [54] of the same compound?
The GI50 was 9.1 µM.

And the TGI [54]?
Its TGI is 50 µM and 20.9 µM.

And the GI50 [55]?
The GI50 was 3.61 µM.

What about the TGI [55] of the same compound?
Its TGI is 14.1 µM and 12.8 µM.

What about the GI50 [56] of the same compound?
The GI50 was 9.98 µM.

And the TGI [56]?
Its TGI is 29.4 µM and 27.5 µM.

And the GI50 [57]?
Its GI50 is 2.5 µM.

And the TGI [57]?
Its TGI is 16.6 µM and 6.05 µM.

And the TGI [58]?
Its TGI is 14.6 µM.

What does the source list for `CC(C)C(=O)NCC[C@@H](CNC(=O)OC(C)(C)C)NC(=O)OC(C)(C)C`?
TGI [1]: > 100 µM; TGI [2]: > 100 µM; TGI [3]: > 100 µM; TGI [4]: > 100 µM; TGI [5]: > 100 µM; TGI [6]: > 100 µM; TGI [7]: > 100 µM; TGI [8]: > 100 µM; TGI [9]: > 100 µM; TGI [10]: > 100 µM; TGI [11]: > 100 µM; TGI [12]: > 100 µM; TGI [13]: > 100 µM; TGI [14]: > 100 µM; TGI [15]: > 100 µM; TGI [16]: > 100 µM; TGI [17]: > 100 µM; TGI [18]: > 100 µM; TGI [19]: > 100 µM; TGI [20]: > 100 µM; TGI [22]: > 100 µM; TGI [23]: > 100 µM; TGI [24]: > 100 µM; TGI [25]: > 100 µM; TGI [26]: > 100 µM; TGI [27]: > 100 µM; TGI [28]: > 100 µM; TGI [29]: > 100 µM; TGI [30]: > 100 µM; TGI [31]: > 100 µM; TGI [32]: > 100 µM; TGI [33]: > 100 µM; TGI [34]: > 100 µM; TGI [35]: > 100 µM; TGI [36]: > 100 µM; TGI [37]: > 100 µM; TGI [38]: > 100 µM; TGI [40]: > 100 µM; TGI [41]: > 100 µM; TGI [42]: > 100 µM; TGI [43]: > 100 µM; TGI [44]: > 100 µM; TGI [45]: > 100 µM; TGI [46]: > 100 µM; TGI [47]: > 100 µM; TGI [48]: > 100 µM; TGI [49]: > 100 µM; TGI [50]: > 100 µM; TGI [51]: > 100 µM; TGI [52]: > 100 µM; TGI [53]: > 100 µM; TGI [54]: > 100 µM; TGI [55]: > 100 µM; TGI [56]: > 100 µM; TGI [57]: > 100 µM; TGI [58]: > 100 µM

— PubChem BioAssay (NCI)
